Square brackets hold non-standard residues; d marks the D form. Peptide text beside a SMILES is read from it. * marks the point of attachment. Arg(Me) = CNC(=N)NCCC[C@H](N)C(=O)O; Dap(CONH2) = NC(=O)NC[C@H](N)C(=O)O; d4Pal = N[C@H](Cc1ccncc1)C(=O)O; Decanoyl = CCCCCCCCCC(=O)*; Pip = O=C(O)[C@@H]1CCCCN1; Aze = O=C(O)[C@@H]1CCN1; NHBn = c1ccc(CN*)cc1; Ahx = NCCCCCC(=O)O; NHPentyl = CCCCCN*; azaGly = NNC(=O)O; NHcPr = C1CC1N*
Each compound was assayed against T1, hOT7T175 (Homo sapiens, UniProt Q969F8) (assay: Assay for intracellular Ca ion level-increasing activity using FLIPR). Details: hOT7T175/CHO cells, relative to Metastin (1-54).
T1 construct: expressed in transfected cells
Assay type: cell-based
Description: In accordance with the method described in JPA 2000-312590, the intracellular Ca ion level-increasing activity was measured using FLIPR.
The stable expression cell line hOT7T175 was obtained by transfection of the expression plasmid pAK-rOT175 for animal cells into CHO/dhfr^− cells, using CellPhect Transfection Kit (Amersham Pharmacia Biotech, Inc.). First, 240 μL of Buffer A (attached to CellPhect Transfection Kit) was added to 9.6 μg of plasmid DNA dissolved in 240 μL of distilled water followed by stirring. After the mixture was settled for 10 minutes, 480 μL of Buffer B (attached to CellPhect Transfection Kit) was added to the mixture, which was vigorously stirred to form liposomes containing the DNA. Then, 4×10^5 CHO/dhfr^− cells (obtained from ATCC) were inoculated on a 60 mm Petri dish. After culturing the cells in Ham's F-12 medium (Nissui Seiyaku Co., Ltd.) supplemented with 10% fetal bovine serum (BIO WHITTAKER, Inc.) at 37° C. for 2 days in 5% carbon dioxide gas, […] of the liposomes were dropwise added to the cells on the Petri dish. After culturing the cells at 37° C. for 6 hours in 5% carbon dioxide gas, the cells were washed twice with serum-free Ham's F-12 medium and 3 mL of 15% glycerol was added to the cells on the Petri dish followed by treatment for 2 minutes. The cells were again washed twice with serum-free Ham's F-12 medium followed by incubation in Ham's F-12 medium supplemented with 10% fetal bovine serum at 37° C. for 15 hours in 5% carbon dioxide gas. The cells were dispersed by trypsin treatment to recover from the Petri dish. The recovered cells were inoculated on a 6-well plate in 1.25×10^4 cells/well and incubation was initiated at 37° C. in Dulbecco's modified Eagle medium (DMEM) medium (Nissui Seiyaku Co., Ltd.) containing 10% dialyzed fetal bovine serum (JRH BIOSCIENCES, Inc.) in 5% carbon dioxide gas. The plasmid-transfected CHO transformants grew in the medium but the non-transfected cells gradually died, accordingly the medium was exchanged on Days 1 and 2 after the initiation of incubation to remove the cells died. Approximately 20 colonies of the CHO transformants that kept growing on Days 8 to 10 after the incubation were isolated. From the cells in these colonies, cells showing high reactivity with the ligand peptide metastin (hereinafter merely referred to as hOT7T175/CHO) were selected to provide for the following experiment.
The intracellular Ca ion level-increasing activity of the synthetic peptide in hOT7T175/CHO was determined using FLIPR (Molecular Devices, Inc.).
hOT7T175/CHO was subcultured in DMEM supplemented with 10% dialyzed fetal bovine serum (hereinafter abbreviated as dFBS) (hereinafter referred to as 10% dFBS/DMEM) and provided for the experiment. The hOT7T175/CHO was suspended in 10% dFBS-DMEM in 15×10^4 cells/ml. The suspension was inoculated on a 96-well plate for FLIPR (Black Plate Clear Bottom, Coster, Inc.) at 200 μl/well (3.0×10^4 cells/200 μL/well), followed by incubation at 37° C. overnight in a 5% CO2 incubator (hereinafter referred to as the cell plate). Then, 21 ml of HANKS/HBSS (9.8 g of HANKS, 0.35 g of sodium hydrogencarbonate, 20 ml of 1M HEPES; after adjusting the pH to 7.4 with 1N sodium hydroxide, the mixture was sterilized by filtration), 210 μl of 250 mM Probenecid and 210 μl of fetal bovine serum (FBS) (HANKS/HBSS-Probenecid-FBS) were mixed.
Furthermore, 2 vials of Fluo3-AM (50 μg/vial) were dissolved in 21 μL of dimethylsulfoxide and 21 μL of 20% Pluronic acid. The resulting solution was added to and mixed with 10 ml of the HANKS/HBSS-Probenecid-FBS described above. After the culture medium was removed, the mixture was dispensed onto the cell plate in 100 μl each/well, followed by incubation at 37° C. for an hour in a 5% CO2 incubator (pigment loading). The peptide was dissolved in dimethylsulfoxide in 1×10^−3 M. The peptide solution was diluted with HANKS/HBSS containing 2.5 mM Probenecid, 0.2% BSA and 0.1% CHAPS. […]

T1 sequence (Q969F8 whole entry L364H): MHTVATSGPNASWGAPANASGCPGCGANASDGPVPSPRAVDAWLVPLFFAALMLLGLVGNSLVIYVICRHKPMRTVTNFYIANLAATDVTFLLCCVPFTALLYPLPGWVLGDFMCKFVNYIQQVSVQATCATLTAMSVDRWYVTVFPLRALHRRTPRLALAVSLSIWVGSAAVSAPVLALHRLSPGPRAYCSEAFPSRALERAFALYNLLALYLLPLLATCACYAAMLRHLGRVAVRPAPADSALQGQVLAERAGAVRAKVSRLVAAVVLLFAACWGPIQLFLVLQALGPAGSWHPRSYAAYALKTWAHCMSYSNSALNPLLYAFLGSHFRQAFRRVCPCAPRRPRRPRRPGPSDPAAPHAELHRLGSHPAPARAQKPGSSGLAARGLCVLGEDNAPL

Structure (SMILES) | Specific Activity: intracellular Ca ion level-increasing activity [specific activity to Metastin (1-54)]
CNC(=N)NCCC[C@H](NC(=O)[C@H](CC(C)C)NC(=O)NNC(=O)[C@H](Cc1ccccc1)NC(=O)[C@@H](NC(=O)[C@H](CC(N)=O)NC(=O)C(CC1CCNCC1)NC(=O)[C@@H](Cc1ccc(O)cc1)NC(C)=O)[C@@H](C)O)C(=O)N[C@@H](Cc1c[nH]c2ccccc12)C(N)=O (mixture of isomers) [Compound No. 774, Ac-D-Tyr-DL-Ala(Pip)-Asn-Thr-Phe-AzaGly-Leu-Arg(Me)-Trp-NH2] | 2.0
CC(=O)N[C@H](Cc1ccc(O)cc1)C(=O)N[C@H](Cc1c[nH]c2ccccc12)C(=O)N[C@@H](CC(N)=O)C(=O)N[C@H](C(=O)N[C@@H](Cc1ccccc1)C(=O)NNC(=O)N[C@@H](CC(C)C)C(=O)N[C@H](CCCNC(=N)N)C(=O)N[C@@H](Cc1c[nH]c2ccccc12)C(N)=O)[C@@H](C)O [Compound No. 708, Ac-D-Tyr-D-Trp-Asn-Thr-Phe-AzaGly-Leu-D-Arg-Trp-NH2] (Ac-[dY][dW]NTF[azaGly]L[dR]W-NH2) | 12.8
CNC(=N)NCCC[C@H](NC(=O)[C@H](CC(C)C)NC(=O)NNC(=O)[C@H](Cc1ccccc1)NC(=O)[C@@H](NC(=O)[C@H](CC(N)=O)NC(C)=O)[C@@H](C)O)C(=O)N[C@@H](Cc1c[nH]c2ccccc12)C(N)=O [Compound No. 709, Ac-Asn-Thr-Phe-AzaGly-Leu-Arg(Me)-Trp-NH2] (Ac-NTF[azaGly]L[Arg(Me)]W-NH2) | 9.8
CCCCCCCCCC(=O)N[C@@H](CC(N)=O)C(=O)N[C@H](C(=O)N[C@@H](Cc1ccccc1)C(=O)NNC(=O)N[C@@H](CC(C)C)C(=O)N[C@@H](CCCNC(=N)NC)C(=O)N[C@@H](Cc1c[nH]c2ccccc12)C(N)=O)[C@@H](C)O [Compound No. 710, Decanoyl-Asn-Thr-Phe-AzaGly-Leu-Arg(Me)-Trp-NH2] (Decanoyl-NTF[azaGly]L[Arg(Me)]W-NH2) | 7.2
CNC(=N)NCCC[C@H](NC(=O)[C@H](CC(C)C)NC(=O)NNC(=O)[C@H](Cc1ccccc1)NC(=O)[C@@H](NC(=O)[C@H](CC(N)=O)NC(=O)CCCCCN)[C@@H](C)O)C(=O)N[C@@H](Cc1c[nH]c2ccccc12)C(N)=O [Compound No. 712, Acp-Asn-Thr-Phe-AzaGly-Leu-Arg(Me)-Trp-NH2] (H-[Ahx]NTF[azaGly]L[Arg(Me)]W-NH2) | 8.9
CNC(=N)NCCC[C@H](NC(=O)[C@H](CC(C)C)NC(=O)NNC(=O)[C@H](Cc1ccccc1)NC(=O)[C@@H](NC(=O)[C@H](CC(N)=O)NC(=O)CCCCCNC(C)=O)[C@@H](C)O)C(=O)N[C@@H](Cc1c[nH]c2ccccc12)C(N)=O [Compound No. 713, Ac-Acp-Asn-Thr-Phe-AzaGly-Leu-Arg(Me)-Trp-NH2] (Ac-[Ahx]NTF[azaGly]L[Arg(Me)]W-NH2) | 3.7
CCCCCNC(=O)C[C@H](NC(=O)[C@@H](Cc1c[nH]c2ccccc12)NC(=O)[C@@H](Cc1ccc(O)cc1)NC(C)=O)C(=O)N[C@H](C(=O)N[C@@H](Cc1ccccc1)C(=O)NNC(=O)N[C@@H](CC(C)C)C(=O)N[C@@H](CCCNC(=N)NC)C(=O)N[C@@H](Cc1c[nH]c2ccccc12)C(N)=O)[C@@H](C)O [Compound No. 714, Ac-D-Tyr-D-Trp-Asp(NHPen)-Thr-Phe-AzaGly-Leu-Arg(Me)-Trp-NH2] (Ac-[dY][dW]D(NHPentyl)TF[azaGly]L[Arg(Me)]W-NH2) | 0.7
CNC(=N)NCCC[C@H](NC(=O)[C@H](CC(C)C)NC(=O)NNC(=O)[C@H](Cc1ccccc1)NC(=O)[C@@H](NC(=O)[C@H](CC(=O)NC1CC1)NC(=O)[C@@H](Cc1c[nH]c2ccccc12)NC(=O)[C@@H](Cc1ccc(O)cc1)NC(C)=O)[C@@H](C)O)C(=O)N[C@@H](Cc1c[nH]c2ccccc12)C(N)=O [Compound No. 715, Ac-D-Tyr-D-Trp-Asp(NHcPr)-Thr-Phe-AzaGly-Leu-Arg(Me)-Trp-NH2] (Ac-[dY][dW]D(NHcPr)TF[azaGly]L[Arg(Me)]W-NH2) | 1.6
CNC(=N)NCCC[C@H](NC(=O)[C@H](CC(C)C)NC(=O)NNC(=O)[C@H](Cc1ccccc1)NC(=O)[C@@H](NC(=O)[C@H](CC(=O)NCc1ccccc1)NC(=O)[C@@H](Cc1c[nH]c2ccccc12)NC(=O)[C@@H](Cc1ccc(O)cc1)NC(C)=O)[C@@H](C)O)C(=O)N[C@@H](Cc1c[nH]c2ccccc12)C(N)=O [Compound No. 716, Ac-D-Tyr-D-Trp-Asp(NHBzl)-Thr-Phe-AzaGly-Leu-Arg(Me)-Trp-NH2] (Ac-[dY][dW]D(NHBn)TF[azaGly]L[Arg(Me)]W-NH2) | 3.6
CNC(=N)NCCC[C@H](NC(=O)[C@H](CC(C)C)NC(=O)NNC(=O)[C@H](Cc1ccccc1)NC(=O)[C@@H](NC(=O)[C@H](CNC(N)=O)NC(=O)[C@@H](Cc1c[nH]c2ccccc12)NC(=O)[C@@H](Cc1ccc(O)cc1)NC(C)=O)[C@@H](C)O)C(=O)N[C@@H](Cc1c[nH]c2ccccc12)C(N)=O [Compound No. 717, Ac-D-Tyr-D-Trp-Alb-Thr-Phe-AzaGly-Leu-Arg(Me)-Trp-NH2] (Ac-[dY][dW][Dap(CONH2)]TF[azaGly]L[Arg(Me)]W-NH2) | 1.0
CNC(=N)NCCC[C@H](NC(=O)[C@H](CC(C)C)NC(=O)NNC(=O)[C@H](Cc1ccccc1)NC(=O)[C@@H](NC(=O)[C@H](CNC(N)=O)NC(=O)[C@@H](Cc1ccncc1)NC(=O)[C@@H](Cc1ccc(O)cc1)NC(C)=O)[C@@H](C)O)C(=O)N[C@@H](Cc1c[nH]c2ccccc12)C(N)=O [Compound No. 718, Ac-D-Tyr-D-Pya(4)-Alb-Thr-Phe-AzaGly-Leu-Arg(Me)-Trp-NH2] (Ac-[dY][d4Pal][Dap(CONH2)]TF[azaGly]L[Arg(Me)]W-NH2) | 2.6
CNC(=N)NCCC[C@H](NC(=O)[C@H](CC(C)C)NC(=O)NNC(=O)[C@H](Cc1ccccc1)NC(=O)[C@@H](NC(=O)[C@H](CC(N)=O)NC(=O)[C@@H]1CCN1C(=O)[C@@H](Cc1ccc(O)cc1)NC(C)=O)[C@@H](C)O)C(=O)N[C@@H](Cc1c[nH]c2ccccc12)C(N)=O [Compound No. 720, Ac-D-Tyr-Aze(2)-Asn-Thr-Phe-AzaGly-Leu-Arg(Me)-Trp-NH2] (Ac-[dY][Aze]NTF[azaGly]L[Arg(Me)]W-NH2) | 0.8
CNC(=N)NCCC[C@H](NC(=O)[C@H](CC(C)C)NC(=O)NNC(=O)[C@H](Cc1ccccc1)NC(=O)[C@@H](NC(=O)[C@H](CC(N)=O)NC(=O)[C@@H]1CCCCN1C(=O)[C@@H](Cc1ccc(O)cc1)NC(C)=O)[C@@H](C)O)C(=O)N[C@@H](Cc1c[nH]c2ccccc12)C(N)=O [Compound No. 721, Ac-D-Tyr-Pic(2)-Asn-Thr-Phe-AzaGly-Leu-Arg(Me)-Trp-NH2] (Ac-[dY][Pip]NTF[azaGly]L[Arg(Me)]W-NH2) | 1.1

From patent publication US8404643B2, “Metastin derivatives and use thereof” (priority 2005, dated 2013)
